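Protocol summary: plate cells (96-well), add compound at 5 concentrations, incubate 48 h, interpolate endpoints linearly. TGI is the concentration that stops growth completely.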
Tests used:
Experiment in all cases: NCI anticancer screen, dose series, 48 h
LOX IMVI melanoma = system: LOX IMVI melanoma
OVCAR-4 ovarian = system: OVCAR-4 ovarian
UO-31 renal = system: UO-31 renal
NCI-H460 lung = system: NCI-H460 lung
CCRF-CEM leukemia = system: CCRF-CEM leukemia
PC-3 prostate = system: PC-3 prostate
MALME-3M melanoma = system: MALME-3M melanoma
SF-539 CNS = system: SF-539 CNS
TK-10 renal = system: TK-10 renal
SNB-75 CNS = system: SNB-75 CNS
HT29 colon = system: HT29 colon
HCT-116 colon = system: HCT-116 colon
RXF 393 renal = system: RXF 393 renal
EKVX NSCLC = system: EKVX NSCLC
786-0 renal = system: 786-0 renal
SK-OV-3 ovarian = system: SK-OV-3 ovarian
M14 melanoma = system: M14 melanoma
SN12C renal = system: SN12C renal
SK-MEL-5 melanoma = system: SK-MEL-5 melanoma
SK-MEL-28 melanoma = system: SK-MEL-28 melanoma
UACC-62 melanoma = system: UACC-62 melanoma
DU-145 prostate = system: DU-145 prostate
A549 NSCLC = system: A549 NSCLC
SR leukemia = system: SR leukemia
KM12 colon = system: KM12 colon
A498 renal = system: A498 renal
MDA-MB-435 = system: MDA-MB-435
SNB-19 CNS = system: SNB-19 CNS
HCT-15 colon = system: HCT-15 colon
NCI-H226 lung = system: NCI-H226 lung
K-562 leukemia = system: K-562 leukemia
HS 578T breast = system: HS 578T breast
T-47D breast = system: T-47D breast
OVCAR-3 ovarian = system: OVCAR-3 ovarian
SK-MEL-2 melanoma = system: SK-MEL-2 melanoma
NCI/ADR-RES ovarian = system: NCI/ADR-RES ovarian
SF-295 CNS = system: SF-295 CNS
UACC-257 melanoma = system: UACC-257 melanoma
HOP-92 NSCLC = system: HOP-92 NSCLC
HCC-2998 colon = system: HCC-2998 colon
SW-620 colon = system: SW-620 colon
HOP-62 NSCLC = system: HOP-62 NSCLC
NCI-H522 lung = system: NCI-H522 lung
MDA-MB-231 breast = system: MDA-MB-231 breast
COLO 205 colon = system: COLO 205 colon
SF-268 CNS = system: SF-268 CNS
HL-60(TB) leukemia = system: HL-60(TB) leukemia
RPMI-8226 leukemia = system: RPMI-8226 leukemia
MOLT-4 leukemia = system: MOLT-4 leukemia
ACHN renal = system: ACHN renal
OVCAR-8 ovarian = system: OVCAR-8 ovarian
MDA-N = system: MDA-N
MCF7 breast = system: MCF7 breast
NCI-H23 lung = system: NCI-H23 lung
IGROV1 ovarian = system: IGROV1 ovarian
CAKI-1 renal = system: CAKI-1 renal
U251 CNS = system: U251 CNS
OVCAR-5 ovarian = system: OVCAR-5 ovarian

Measured: TGI

Clc1ccc(Cl)c(N=Nc2cc3c4c(c2)CCCN4CCC3)c1
not listed: OVCAR-5 ovarian
> 10 µM: all other assays above

C=CCNC(=O)NNC(O)(C(=O)OCC)C(F)(F)F (stereo not drawn)
not listed: UACC-62 melanoma | SF-295 CNS
> 100 µM: all other assays above

— PubChem BioAssay (NCI)
